Assay results taken from US20050282757A1, “Peptide boronic acid compounds useful in anticoagulation” (Trigen Limited, priority 2002, published 2005).

Tests used:
thrombin time (TT) = assay: Intravenous administration into humans (Examples 40 and 46); assay type: in vivo
Experimental: The test consisted of three groups, each of six males. From each group 5 men were given the active ingredient and 1 was given a placebo.
Total I.V. administered doses were: • 82 mg (7 mg intravenous bolus (over 30s) followed by an infusion of 25 mg/h for 3 hours). • 130 mg (10 mg intravenous bolus (over 30s) followed by an infusion of 40 mg/h for 3 hours). • 120 mg (by infusion of 40 mg/h for 3 hours). […] Within 30 minutes after cessation of infusion there was a fall to a level at which clinically significant anticoagulation is not expected.

[1] = Comparative storage stability of sodium and calcium salts (Example 49); assay type: physicochemical; settings: for Tri50c (w/w %, LOD corr.): corrected for loss on drying
Excerpt: In both studies the active pharmaceutical ingredient was stored in grip sealed double bags within a PE/PP screw cap closed cylinder.

[2] = tested on: dynamic coagulation markers; assay: Simulated mitral valve repair on hypothermic CPB in dogs (Example 48); assay type: in vivo, beagle dogs; settings: intravenous
Experimental: Following a dose ranging study in conscious dogs, six beagle dogs were placed on CPB and underwent a simulated mitral valve repair. A range of dynamic coagulation markers were measured, including thrombin clotting time (TT), activated partial thromboplastin time (APTT), activated clotting time (ACT), ecarin clotting time (ECT), whole blood thrombin clotting time, platelet counts and function tests. In addition, pre and post-operative echocardiograms and intra-operative blood loss were evaluated. […] By virtue of its predictable anticoagulant efficacy and controlled duration of action, TGN 255 offers potential in on pump and off pump coronary bypass procedures.

[3] = Stability assay before and after drying, HPLC-PDA (Example 34); assay type: physicochemical; settings: for Amount: 5 mg in 5 mL
Experimental: An assay of TRI 50c and its sodium and lysine salts before and after drying.
For sample analysis, 5 mg of dried and non-dried material was weighed in a 5 mL volumetric flask and dissolved in 1 mL acetonitrile and filled up with demineralised water to 5 mL.
The quantitative evaluation was performed using an HPLC-PDA method.

thrombin time and APTT = assay: Intravenous administration in beagle dogs, PK/PD (Example 36); assay type: in vivo; settings: 1.0 mg/kg i.v.; for thrombin time at pharmacodynamic C max: 2 minutes post dose, base line 14.3 seconds, monosodium salt
Experimental: Blood samples were taken into 3.8% tri-sodium citrate (1+8) at pre dose, 2, 5, 10, 20, 30, minutes post dose and then at 1, 2, 3, 4, 6, 8, 12 and 24 hours post dose. Plasma was prepared by centrifugation and frozen at minus 20° C. pending analysis.

[4] = Solubility of TRI 50c monosodium salt at different pH values; assay type: physicochemical
Experimental: It may be desirable to make aqueous solutions of boronic acid drugs for administering them. […] However, a solution with a pH of 9.5 may be unacceptable or undesirable. Accordingly, a pharmaceutically acceptable organic acid may be included in the particulate formulation in an amount selected to reduce the pH to a value at which the solution is more acceptable but at which a solution of drinkable quantity (e.g. about 50 ml to about 150 ml) may be formed by reconstituting the particulate formulation. As the organic acid may be mentioned citric acid, tartaric acid or malic acid, for example. In many instances, citric acid is chosen.
In a first series of experiments, this amount of the salt was dissolved in 50 ml water to form a solution of approximately pH 9.5. Dilute aqueous HCl was added to determine how much the pH could be reduced before precipitation occurred.
In a second series of experiments, the same amount of the salt was dissolved in 150 ml water, and citric acid was added. […] Since acid solutions tend to be more palatable than alkaline ones, and citric acid is a common flavouring agent, this behaviour of the salt is highly beneficial. […] In general, it is contemplated that the boronate will be formulated to form a reconstituted solution having a pH of from 4 to 8, e.g. 4 to 7, optionally 5 to 6.

[5] = Excretion of administered dose; settings: in vivo
Excerpt: It will be appreciated that such short duration of action (rapid offset of activity) achieved by a boronic acid is well suited for the prevention of thrombosis in intermittent apheresis procedures, and that oral administration is particularly useful in the case of elective intermittent apheresis procedures. In one class of embodiments, the apheresis procedure is haemodialysis (strictly CIHD); in another, the procedure is not haemodialysis.

Plasmin = Plasmin (Homo sapiens, UniProt P00747); assay: Plasmin inhibition, Method B (Example 52); assay type: biochemical; settings: Plasmin relative to Thrombin
Experimental: 50 μl Plasmin (75 ng/ml in assay buffer) and 20 μl vehicle or compound solution were added to 110 μl assay buffer (100 mM Na orthophosphate (80% Na2HPO4 and 20% NaH2PO4), 200 mM NaCl, 0.5% PEG 6000, 0.02% Na azide, pH 7.5) and incubated for 5 minutes at 37° C.

[6] = dry (1 week in desiccator over phosphorus pentoxide)

Plasmin, sequence (P00747 581-810 limits assumed, species assumed): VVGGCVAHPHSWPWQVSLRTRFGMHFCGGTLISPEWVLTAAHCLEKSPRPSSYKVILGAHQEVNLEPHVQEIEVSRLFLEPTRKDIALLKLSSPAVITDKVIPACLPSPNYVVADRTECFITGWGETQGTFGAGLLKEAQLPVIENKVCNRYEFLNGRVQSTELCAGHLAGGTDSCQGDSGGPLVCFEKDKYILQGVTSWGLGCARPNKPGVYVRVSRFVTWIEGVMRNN
Plasmin, sequence (P00747 97-580 limits assumed, species assumed): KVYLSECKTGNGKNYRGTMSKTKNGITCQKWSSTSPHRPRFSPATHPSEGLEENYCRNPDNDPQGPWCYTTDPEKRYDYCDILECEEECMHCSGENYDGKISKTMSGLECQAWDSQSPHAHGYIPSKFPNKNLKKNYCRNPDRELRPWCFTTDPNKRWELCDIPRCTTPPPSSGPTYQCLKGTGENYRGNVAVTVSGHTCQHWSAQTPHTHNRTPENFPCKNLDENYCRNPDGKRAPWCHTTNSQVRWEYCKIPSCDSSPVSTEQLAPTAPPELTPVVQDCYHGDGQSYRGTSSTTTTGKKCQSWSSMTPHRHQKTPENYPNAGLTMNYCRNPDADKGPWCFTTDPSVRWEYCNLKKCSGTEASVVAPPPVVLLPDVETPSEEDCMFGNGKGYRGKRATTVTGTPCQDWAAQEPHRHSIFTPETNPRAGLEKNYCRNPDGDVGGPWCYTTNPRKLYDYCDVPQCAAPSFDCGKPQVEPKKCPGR

Compound: COCCC[C@H](NC(=O)[C@@H]1CCCN1C(=O)[C@@H](Cc1ccccc1)NC(=O)OCc1ccccc1)B(O)O.[Na+] [TRI 50c monosodium salt, Cbz-(R)-Phe-(S)-Pro-(R)-Mpg-B(OH)2 monosodium salt]
- time for plasma concentrations of the active principle to return to tolerably low levels (thrombin time (TT); after termination of intravenous administration): ≤ 30 min
- time after cessation of infusion to fall to a level at which clinically significant anticoagulation is not expected (thrombin time (TT); i.v. infusion): ≤ 30 min
- distribution phase, time after the end of infusion (thrombin time (TT); i.v. infusion for 3 hours): ≤ 30 min
- effect on thrombin time (TT) (thrombin time (TT); intravenous infusion): rapid, dose-related increase in the thrombin time (TT)
- overall terminal elimination half life (thrombin time (TT); plasma, i.v.): about 4 hours
- safety assessments (thrombin time (TT); single i.v. doses 82, 130, 120 mg): No clinically significant findings
- adverse clinical events (thrombin time (TT); study period of 24 hours, any dose): no adverse clinical events of either a general or cardiovascular nature
- Appearance ([1]; T = 0): Powdery
- Color ([1]; T = 0): White
- Tri50c (w/w %) ([1]; T = 0): 101.1 w/w %
- Tri50c (w/w %, LOD corr.) ([1]; T = 0): 101.5 w/w %
- Appearance ([1]; T = 1, 25° C./60% r.h.): powdery
- Color ([1]; T = 1, 25° C./60% r.h.): white
- Tri50c (w/w %) ([1]; T = 1, 25° C./60% r.h.): 99.5 w/w %
- Tri50c (w/w %, LOD corr.) ([1]; T = 1, 25° C./60% r.h.): 103.6 w/w %
- Appearance ([1]; T = 1, 40° C./75% r.h.): powdery
- Color ([1]; T = 1, 40° C./75% r.h.): white
- Tri50c (w/w %) ([1]; T = 1, 40° C./75% r.h.): 90.3 w/w %
- Tri50c (w/w %, LOD corr.) ([1]; T = 1, 40° C./75% r.h.): 94.5 w/w %
- Appearance ([1]; T = 1, −20° C.): powdery
- Color ([1]; T = 1, −20° C.): white
- Tri50c (w/w %) ([1]; T = 1, −20° C.): 103.1 w/w %
- Tri50c (w/w %, LOD corr.) ([1]; T = 1, −20° C.): 104.3 w/w %
- Appearance ([1]; T = 3, 25° C./60% r.h.): powdery
- Color ([1]; T = 3, 25° C./60% r.h.): white
- Tri50c (w/w %) ([1]; T = 3, 25° C./60% r.h.): 95.3 w/w %
- Tri50c (w/w %, LOD corr.) ([1]; T = 3, 25° C./60% r.h.): 100.4 w/w %
- Appearance ([1]; T = 3, 40° C./75% r.h.): viscous
- Color ([1]; T = 3, 40° C./75% r.h.): brown
- Tri50c (w/w %) ([1]; T = 3, 40° C./75% r.h.): 48.6 w/w %
- Tri50c (w/w %, LOD corr.) ([1]; T = 3, 40° C./75% r.h.): 52.2 w/w %
- Appearance ([1]; T = 3, −20° C.): powdery
- Color ([1]; T = 3, −20° C.): white
- Tri50c (w/w %) ([1]; T = 3, −20° C.): 102.5 w/w %
- Tri50c (w/w %) ([1]; T = 12, 25° C./60% r.h.): 70.5 w/w %
- Tri50c (w/w %, LOD corr.) ([1]; T = 12, 25° C./60% r.h.): 71.2 w/w %
- anticoagulation during bypass and surgery [2]: excellent anticoagulation during bypass and surgery with little bleeding
- Purity [3, 6]: 98.81 % area
- Amount [3, 6]: 1024 µg/mL
- Purity ([3]; non-dried): 98.61 % area
- Amount ([3]; non-dried): 1005.8 µg/mL
- thrombin time at pharmacodynamic C max (thrombin time and APTT; listed as TRI 50c sodium salt): 154 s
- thrombin time at pharmacodynamic C max (thrombin time and APTT): 154.4 s
- Thrombin time (thrombin time and APTT; one hour post dose): 26 s
- elevation in the APTT (thrombin time and APTT; post dose): 1.3 times
- tolerance (thrombin time and APTT; total duration of the study): tolerated well with no adverse events
- Thrombin clotting time elevation above base line (thrombin time and APTT; two minutes following dosing): 10.8 times
- APTT post dose (thrombin time and APTT; from 19 seconds): 25 s
- concentration of boronate salt solution that can be formed ([4]; pH of about 9.5): up to 600 mg/ml
- pH below which the salt tended to precipitate ([4]; salt equivalent to 600 mg TRI 50c in 50 ml water, dilute aqueous HCl added): below 9
- pH reached before precipitation occurred ([4]; salt equivalent to 600 mg TRI 50c in 150 ml water, citric acid added): 3.7-3.8
- administered dose excreted as TRI 50c species (acid and corresponding boronate species) [5]: 14%

Compound: COCCC[C@H](NC(=O)[C@@H]1CCCN1C(=O)[C@@H](Cc1ccc(F)cc1)NC(=O)OCc1ccccc1)B([O-])O.[Na+] [TRI 50f]
- Selectivity (Plasmin): >1000
